Measured values taken from US12691105B2, “Compositions containing nicotinamide and vitamin B6 and methods of using such compositions for treating cachexia or precachexia” (SOCIETE DES PRODUITS NESTLE S.A., priority 2020, dated 2026).

What was measured:
[1] = test system: PANC-1 cell line (pancreatic duct epitheloid carcinoma); assay: Safety of compounds as non-oncogenic: cancer cell proliferation, PANC-1; format: cell-based, human; conditions: FIG. 7B, serum and FGF positive controls
Experimental: (§1) The safety of the compounds was tested in two different human cancer cell lines purchased from ATCC. FIG. 7A cell line PC-3 was of prostate/adenocarcinoma from a person, and FIG. 7B cell line PANC-1 was from a pancreatic duct epitheloid carcinoma from a person. Serum and FGF (Fibroblast Growth Factor) conditions were used as positive controls. *, **, ***, **** indicates difference from the control, One-way ANOVA, with p<0.05, p<0.01, p<0.001, p<0.0001, respectively. Data are presented as Mean+/−SEM.
(§2) The safety of the compounds were tested in two different human cancer cell lines purchased from ATCC. Serum and FGF (Fibroblast Growth Factor) conditions were used as positive controls. *, **, ***, **** indicates difference from the control, One-way ANOVA, with p<0.05, p<0.01, p<0.001, p<0.0001, respectively. Data are presented as Mean+/−SEM.
Cell line PANC-1 was from a pancreatic duct epitheloid carcinoma from a person (FIG. 7B).

[2] = test system: PC-3 cell line (prostate adenocarcinoma); assay: Safety of compounds as non-oncogenic: cancer cell proliferation, PC-3; format: cell-based, human; conditions: FIG. 7A, serum and FGF positive controls
Experimental: as §1, §2
Cell line PC-3 of prostate/adenocarcinoma from a person (FIG. 7A)

Human primary myoblasts = assay: Myogenic amplification and commitment of muscle stem cells (Pax7/MyoD staining); format: cell-based; conditions: dose response, donors 1 and 2 pooled, 96 hours, control DMSO 1%; for proportion of MyoD+ cells (normalized to total cell number, fold change compared to control): FIG. 1B/2B
Experimental: Human Skeletal Muscle Myoblasts were purchased from Lonza (https://bioscience.lonza.com). These cells were isolated from the upper arm or leg muscle tissue of normal donors and used after the second passage. Several donors were tested to ensure cell viability and purity before selecting the final donors, which are a person (refer thereafter as Donor 1), a person (refer thereafter as Donor 2) and a person (refer thereafter as Donor 3). Human primary myoblasts were seeded in 384 well plates at a density of 1′000 cells per well in skeletal muscle growth medium (SKM-M, AMSbio). For treatment, compounds were directly added to the myoblast cultures 16 hours after initial plating. All cultures were then grown for 96 hours. Cells were stained for Pax7 and MyoD expression using antibodies directed against Pax7 and MyoD and counterstained with Hoechst 33342 to visualize cell nuclei. Pax7+ cells are defined as cells that express Pax7 regardless of MyoD expression. […] Image acquisition was performed using the ImageXpress (Molecular Devices) platform. Custom module analysis based on Multi-Wavelength Cell Scoring of the MetaXpress software was used for quantification. *, **, ***, **** indicates difference from the control, One-way ANOVA, with p<0.05, p<0.01, p<0.001, p<0.0001, respectively. Data are presented as Mean+/−SEM Human primary myoblasts from different donors (donor 1, donor 2 or donor 3) were seeded in 384 well plates at a density of 1′000 cells per well in skeletal muscle growth medium (SKM-M, AMSbio). For treatment, compounds were directly added to the myoblast cultures 16 hours after initial plating. All cultures were then grown for 96 hours. Cells were stained for Pax7 and MyoD expression using antibodies directed against Pax7 and MyoD and counterstained with Hoechst 33342 to visualize cell nuclei. Pax7+ cells are defined as cells that express Pax7 regardless of MyoD expression. […] Custom module analysis based on Multi-Wavelength Cell Scoring of the MetaXpress software was used for quantification. […] Data are expressed as number of cells per arear of injured muscle.

NC(=O)c1cccnc1 [Nicotinamide]
proliferation of cancer cells [1]: no effect on the proliferation of cancer cells | proliferation of cancer cells [2]: no effect on the proliferation of cancer cells | proportion of Pax7+ cells (normalized to total cell number, fold change compared to control) (Human primary myoblasts; FIG. 1A): increasing the proportion of both amplifying (Pax7+) and differentiating (MyoD+) cells in a dose dependent manner | proportion of MyoD+ cells (normalized to total cell number, fold change compared to control) (Human primary myoblasts): increasing the proportion of both amplifying (Pax7+) and differentiating (MyoD+) cells in a dose dependent manner

Cc1ncc(CO)c(CO)c1O [Pyridoxine]
proliferation of cancer cells [1]: no effect on the proliferation of cancer cells | proliferation of cancer cells [2]: no effect on the proliferation of cancer cells | proportion of MyoD+ cells (normalized to total cell number, fold change compared to control) (Human primary myoblasts): increasing the proportion of differentiating (MyoD+) cells in a dose dependent manner
